From ChEMBL document CHEMBL6134830, “Naturally inspired chimeric quinolone derivatives to reverse bacterial drug resistance” (Eur J Med Chem, 2025)
≈ marks a conversion by molar mass, not a printed value. Calls of active or inactive are those of the source. The calls are words filed in the database; no cut-off is given here.

Key:
Enterococcus gallinarum = assay: Antimicrobial activity against Enterococcus gallinarum ATCC 49573 assessed as inhibition of bacterial growth measured after 20 hrs by CLSI protocol based Muller Hinton broth assay; format: functional
[1] = Toxicity in ICR mouse assessed as compatible skin at 25 mg/kg, sc administered as single dose and measured at 2 hrs post-infection by H and E staining based analysis; format: organism-based; conditions: in vivo
Cell membrane [2] = assay: Disruption of cell membrane in methicillin-resistant Staphylococcus aureus assessed as PI-positive bacteria at 2 times MIC measured after 30 mins by PI staining based flow cytometry analysis (reference value: 7.49 %); format: subcellular
Staphylococcus aureus [3] = assay: Antimicrobial activity against Staphylococcus aureus ATCC 25923 assessed as inhibition of bacterial growth measured after 20 hrs by CLSI protocol based Muller Hinton broth assay; format: functional
Staphylococcus aureus [4] = assay: Antimicrobial activity against Methicillin-resistant Staphylococcus aureus ATCC 33591 measured after 5 to 25 passages at sub-MIC incubated for 12 hrs; format: functional, organism-based
[5] = Toxicity in ICR mouse assessed as pathological change in skin at 25 mg/kg, sc administered as single dose and measured at 2 hrs post-infection by H and E staining based analysis; format: organism-based; conditions: in vivo
[6] = Hemolytic activity in Sprague-Dawley rat Red blood cells at 200 ug/ml incubated for 1 hr by absorbance based analysis; format: toxicity, cell-based; conditions: erythrocyte, dose 200 µg/ml
Cell membrane [7] = assay: Disruption of cell membrane in methicillin-resistant Staphylococcus aureus at 4 times MIC measured after 4 hrs by scanning electron microscopic analysis; format: subcellular
Staphylococcus aureus [8] = assay: Antibacterial activity against methicillin-resistant Staphylococcus aureus infected in ICR mouse model of subcutaneous abscess assessed as reduction in infiltration of inflammatory cells at 25 mg/kg, sc measured at 48 hrs post-injection by H and E/Masson staining based analysis; format: functional, organism-based
Enterococcus faecalis = assay: Antimicrobial activity against Enterococcus faecalis ATCC 19433 assessed as inhibition of bacterial growth measured after 20 hrs by CLSI protocol based Muller Hinton broth assay; format: functional
Staphylococcus aureus [9] = assay: Antibacterial activity against methicillin-resistant Staphylococcus aureus infected in ICR mouse model of subcutaneous abscess assessed as reduction in IL-6 level at 25 mg/kg, sc measured at 48 hrs post-injection by ELISA method; format: functional, organism-based
Cell membrane [10] = assay: Disruption of cell membrane in methicillin-resistant Staphylococcus aureus assessed as PI-positive bacteria at 4 times MIC measured after 30 mins by PI staining based flow cytometry analysis (reference value: 7.49 %); format: subcellular
Staphylococcus aureus [11] = assay: Antimicrobial activity against Methicillin-resistant Staphylococcus aureus ATCC 43300 assessed as inhibition of bacterial growth measured after 20 hrs by CLSI protocol based Muller Hinton broth assay; format: functional
[12] = Toxicity in ICR mouse assessed as pathological change in liver at 25 mg/kg, sc administered as single dose and measured at 2 hrs post-infection by H and E staining based analysis; format: organism-based; conditions: in vivo
Acinetobacter baumannii = assay: Antimicrobial activity against Acinetobacter baumannii ATCC 19606 assessed as inhibition of bacterial growth measured after 20 hrs by CLSI protocol based Muller Hinton broth assay; format: functional
[13] = Toxicity in ICR mouse assessed as pathological change in lung at 25 mg/kg, sc administered as single dose and measured at 2 hrs post-infection by H and E staining based analysis; format: organism-based; conditions: in vivo
[14] = Toxicity in ICR mouse assessed as pathological change in spleen at 25 mg/kg, sc administered as single dose and measured at 2 hrs post-infection by H and E staining based analysis; format: organism-based; conditions: in vivo
[15] = Toxicity in ICR mouse assessed as pathological change in kidney at 25 mg/kg, sc administered as single dose and measured at 2 hrs post-infection by H and E staining based analysis; format: organism-based; conditions: in vivo
[16] = Toxicity in ICR mouse assessed as pathological change in heart at 25 mg/kg, sc administered as single dose and measured at 2 hrs post-infection by H and E staining based analysis; format: organism-based; conditions: in vivo
Staphylococcus aureus [17] = assay: Antibacterial activity against methicillin-resistant Staphylococcus aureus infected in ICR mouse model of subcutaneous abscess assessed as effect on lesions at 25 mg/kg, sc measured at 48 hrs post-injection; format: functional, organism-based
Escherichia coli [18] = assay: Antimicrobial activity against Escherichia coli ATCC 25922 assessed as inhibition of bacterial growth measured after 20 hrs by CLSI protocol based Muller Hinton broth assay; format: functional
Staphylococcus aureus [19] = assay: Antimicrobial activity against Methicillin-resistant Staphylococcus aureus assessed as reduction in bacterial load at 4 times MIC measured after 4 hrs by time-kill kinetics assay; format: functional
Escherichia coli [20] = assay: Antimicrobial activity against Escherichia coli ATCC 25922 measured after 5 to 25 passages at sub-MIC incubated for 12 hrs; format: functional, organism-based
Cell membrane [21] = assay: Disruption of cell membrane in methicillin-resistant Staphylococcus aureus assessed as PI-positive bacteria at 8 times MIC measured after 30 mins by PI staining based flow cytometry analysis (reference value: 7.49 %); format: subcellular
Mus musculus [22] = assay: Anti-inflammatory activity against subcutaneous abscess ICR mouse model infected with methicillin-resistant Staphylococcus aureus assessed as reduction in TNF-alpha level at 25 mg/kg, sc measured at 48 hrs post-injection by ELISA method; format: functional, organism-based
Staphylococcus aureus [23] = assay: Antibacterial activity against methicillin-resistant Staphylococcus aureus infected in ICR mouse model of subcutaneous abscess assessed as bacterial elimation at 25 mg/kg, sc measured at 48 hrs post-injection relative to control; format: functional
Staphylococcus aureus [24] = assay: Antimicrobial activity against Methicillin-resistant Staphylococcus aureus assessed as reduction in bacterial growth at 4 times MIC measured after 8 hrs by time-kill kinetics assay relative to control; format: functional; parameters: scale not given: the % may be the effect or the level left
L929 = assay: Cytotoxicity against mouse L929 cells assessed as reduction in cell viability at 100 microg/mL incubated for 24 hrs by MTT assay; format: toxicity, cell-based; conditions: l929, 24 h, dose 100 µg/ml
Cell membrane [25] = assay: Disruption of cell membrane in methicillin-resistant Staphylococcus aureus at 8 times MIC measured after 4 hrs by scanning electron microscopic analysis; format: subcellular
Staphylococcus aureus [26] = assay: Antibacterial activity against methicillin-resistant Staphylococcus aureus infected in ICR mouse model of subcutaneous abscess assessed as bacterial load at 25 mg/kg, sc measured at 48 hrs post-injection; format: functional
Mus musculus [27] = assay: Anti-inflammatory activity against subcutaneous abscess ICR mouse model infected with methicillin-resistant Staphylococcus aureus assessed as reduction in IL-6 level at 25 mg/kg, sc measured at 48 hrs post-injection by ELISA method; format: functional, organism-based
Pseudomonas aeruginosa = assay: Antimicrobial activity against Pseudomonas aeruginosa ATCC 27853 assessed as inhibition of bacterial growth measured after 20 hrs by CLSI protocol based Muller Hinton broth assay; format: functional
Staphylococcus aureus [28] = assay: Antimicrobial activity against Methicillin-resistant Staphylococcus aureus assessed as reduction in bacterial growth at 4 times MIC measured for 0.5 to 24 hrs by time-kill kinetics assay; format: functional, organism-based; conditions: time 0.5-24 hrs
Staphylococcus aureus [29] = assay: Antibacterial activity against methicillin-resistant Staphylococcus aureus infected in ICR mouse model of subcutaneous abscess assessed as effect on skin abscesses at 25 mg/kg, sc measured at 48 hrs post-injection; format: functional, organism-based

For CCCCCCCCCNC(=O)[C@H](CCCCN)NC(=O)[C@H](CCCNC(=N)N)NC(=O)[C@H](CCCCN)NC(=O)c1ccc(C(=O)N2CCN(c3cc4c(cc3F)c(=O)c(C(=O)O)cn4C3CC3)CC2)cc1, the MIC (Enterococcus gallinarum) was 12.5 µg/mL (≈ 12.3 µM), the Activity [1] was “Non-toxic” and the Activity (Cell membrane [2]) was 12%. For the same molecule, the MIC (Staphylococcus aureus [3]) was 1.56 µg/mL (≈ 1.53 µM), the Activity (Staphylococcus aureus [4]) was “Active” and the Activity [5] was “Non-toxic”. For the same molecule, the Activity [6] was “Non-toxic”, the Activity (Cell membrane [7]) was “Active” and the Activity (Staphylococcus aureus [8]) was “Active”. For the same molecule, the MIC (Enterococcus faecalis) was 12.5 µg/mL (≈ 12.3 µM), the Activity (Staphylococcus aureus [9]) was “Active” and the Activity (Cell membrane [10]) was 26.8%. The MIC (Staphylococcus aureus [11]) was 6.25 µg/mL (≈ 6.14 µM), the Activity [12] was “Non-toxic” and the MIC (Acinetobacter baumannii) was 6.25 µg/mL (≈ 6.14 µM). The Activity [13] was “Non-toxic”, the Activity [14] was “Non-toxic” and the Activity [15] was “Non-toxic”. For the same molecule, the Activity [16] was “Non-toxic”, the Activity (Staphylococcus aureus [17]) was “Active” and the MIC (Escherichia coli [18]) was 3.12 µg/mL (≈ 3.07 µM). The Activity (Staphylococcus aureus [19]) was 3.6 log10CFU/ml, the Activity (Escherichia coli [20]) was “Active” and the Activity (Cell membrane [21]) was 58.4%. For the same molecule, the Activity (Mus musculus [22]) was “Active”, the Activity (Staphylococcus aureus [23]) was 99.99% and the Activity (Staphylococcus aureus [24]) was 100%. The Activity (L929) was “Non-toxic”, the Activity (Cell membrane [25]) was “Active” and the Activity (Staphylococcus aureus [26]) was 4.4 log10CFU/ml. The Activity (Mus musculus [27]) was “Active” and the MIC (Pseudomonas aeruginosa) was 3.12 µg/mL (≈ 3.07 µM).

For O=C(O)c1cn(C2CC2)c2cc(N3CCNCC3)c(F)cc2c1=O [CIPROFLOXACIN], the Activity (Cell membrane [7]) was “inactive”, the Activity (Staphylococcus aureus [8]) was “Active; Partial Reduction In Inflammation” and the Activity (Cell membrane [21]) was 9.46%. The Activity (Mus musculus [22]) was “Active”, the Activity (Staphylococcus aureus [28]) was “inactive” and the Activity (L929) was “Non-toxic”. The Activity (Staphylococcus aureus [29]) was “inactive”.
